Results on seven compounds are retold here after article PMC10709327, “A class of secreted mammalian peptides with potential to expand cell-cell communication” (Nature Communications, 2023).

As usually defined, the half-life is the time in which the quantity being followed falls by half. Read a high half-life as slow loss. The term bioavailability denotes the share of a dose that reaches the circulation, judged against a reference dose that is usually intravenous.

Where a SMILES comes first, the peptide text is derived from it. Where no end group is shown, it is not given here. [ ]: non-standard residue; d: D form. pGlu = O=C1CC[C@@H](C(=O)O)N1

One data set addresses T1, human TACR3 (Homo sapiens, UniProt P29371).
T1 construct: host or cells: PathHunter beta-arrestin CHO-K1 cells
T1 sequence (P29371 1-465): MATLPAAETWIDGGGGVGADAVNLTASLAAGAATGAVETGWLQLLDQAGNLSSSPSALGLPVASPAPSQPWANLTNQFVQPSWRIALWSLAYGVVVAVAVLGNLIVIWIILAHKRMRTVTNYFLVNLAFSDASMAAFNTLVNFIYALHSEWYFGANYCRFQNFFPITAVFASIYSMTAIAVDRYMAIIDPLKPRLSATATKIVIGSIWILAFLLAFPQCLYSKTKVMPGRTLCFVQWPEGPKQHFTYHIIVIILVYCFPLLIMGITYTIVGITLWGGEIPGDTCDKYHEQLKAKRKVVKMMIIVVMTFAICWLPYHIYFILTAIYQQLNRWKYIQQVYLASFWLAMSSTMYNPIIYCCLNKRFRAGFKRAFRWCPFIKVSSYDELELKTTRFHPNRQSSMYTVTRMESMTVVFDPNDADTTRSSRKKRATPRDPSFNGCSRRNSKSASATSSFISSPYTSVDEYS
The experiment in a line: TACR agonist assay, PathHunter beta-arrestin recruitment (TACR3). The following applies: read-out: maximal activation at TACR3, higher compared to Substance P(6-11). Type of data set: cell-based. (In general: Activated receptors often draw arrestin, which recruitment assays turn into a signal.)

The next data set can be described thus: in vitro. The procedure:
P value were calculated with two-way ANOVA. Source data are provided as a Source Data file.
At indicated time point, 1 µl of HALT protease inhibitor was immediately added, and plasma was boiled and prepared using the peptidomics workflow described above. […] Half-lives were calculated using an exponential decay fit.

For data set [1], the system named is diet-induced obese male mice. The experiment in a line: 3-day food intake and body weight under daily dosing. It counts as in vivo, mouse. To be noted: for Food Intake: 50 mg/kg. Here is the method: (§1) Fig. 5 Functional studies of […] in feeding and energy balance in mice. a Schematic of the primary amino acid sequence for full-length mouse GDF15 preproprotein and annotation of CAP-GDF15 sequence as well as the canonical GDF15 hormone sequence. b–d Food intake (b), respiratory exchange ratio (RER, c), and ambulatory activity (d) of 12–16-week diet-induced obese male mice following a single treatment of CAP-GDF15 (50 mg/kg, intraperitoneal) or vehicle control. e–g Food intake (e), RER (f), and ambulatory activity (g) of 12–16-week diet-induced obese male mice following a single treatment of scrambled CAP-GDF15 (50 mg/kg, intraperitoneal, scrambled sequence: pGlu-[…]-NH2) or vehicle control. h, i 3-day food intake (h) and body weight (i) of 12–16-week diet-induced obese male mice following treatment with CAP-GDF15 or scrambled CAP-GDF15 (50 mg/kg/day, IP), or vehicle control. Data are shown as means ± SEM. b–d, N = 12 mice/group; for e, f N = 8 mice/group; for h N = 7 food cages for vehicle and CAP-GDF15 groups and N = 5 for the scrambled peptide group; for i N = 14 mice for the vehicle group, N = 13 for the CAP-GDF15 group, and N = 5 for the scrambled peptide group. b–i injection occurred at time T = 0 (5:00 pm) and data were collected for the following 16 hrs. For (b-i), p values were calculated by two-way ANOVA. Source data are provided as a Source Data file.
Lastly, to determine whether the acute food intake suppressive effects of CAP-GDF15 would lead to long-term suppression of feeding and obesity, we administered CAP-GDF15 or scrambled CAP-GDF15 (50 mg/kg/day, IP), or vehicle control to diet-induced obese mice. Food intake and body weight were monitored over a three-day period. A durable suppression of food intake in CAP-GDF15-treated mice was over the three-day experiment (Vehicle, 7.3 ± 0.5 g/mouse; […], 4.1 ± 0.9 g/mouse/day, P < 0.05, Fig. 5h). Consequently, and as expected, an increasing reduction in body weight was also detected (Vehicle, +0.1 ± 0.3 g/mouse; CAP-GDF15, −1.9 ± 0.3 g/mouse, P < 0.001, Fig. 5i). Importantly, mice treated with the scrambled CAP-GDF15 peptide were indistinguishable in body weight or food intake from control mice (P > 0.05 versus vehicle-treated mice, Fig. 5h, i).
(§2) Animal experiments were performed according to a procedure approved by the Stanford University Administrative Panel on Laboratory Animal Care. Mice were maintained in 12-h light-dark cycles at 22 °C and about 50% relative humidity and fed a standard irradiated rodent diet. Where indicated, a high-fat diet (D12492, Research Diets 60% kcal from fat) was used. Male C57BL/6 J (stock number 000664) and male C57BL/6 J DIO mice were purchased from the Jackson Laboratory (stock number 380050). For studies in high-fat diet-fed mice, peptides were dissolved in 18:1:1 (by volume) of saline:Kolliphor EL (Sigma Aldrich):DMSO and administered to mice by intraperitoneal injections at a volume of 10 µl/g at the indicated doses for the indicated times. For lipopolysacchardide injection, LPS (Sigma, #L2880-10MG) was dissolved in saline and administered to mice at a volume of 5 µl/g at indicated dose. For fasting, food was removed from mice for 16 h. For running, a six-lane Columbus Instruments animal treadmill (product 1055-SRM-D65) was used with following 1 h protocol: 10 min at 6 m/min, 50 min at 18 m/min, and increase every 2 min by 2 m/min for the last 10 minutes, all at 12° incline. For all treatment experiments, mice were mock injected with the vehicle for 3–5 days until body weights were stabilized. Heparin plasma was harvested by submandibular bleed. For all experiments, mice were randomly assigned to treatment groups. Experimenters were not blinded to groups.

Data set [2] deals with diet-induced obese male mice. Briefly: Metabolic chamber studies after a single dose (food intake, RER, movement, VO2, VCO2). To be noted: single dose 50 mg/kg intraperitoneal, diet-induced obese male mice, metabolic chambers. Type of data set: in vivo, mouse. The procedure: as §1, with “Data are shown as means ± SEM. b–d, N = 12 mice/group; for e, f N = 8 mice/group; for h N = 7 food cages for vehicle and CAP-GDF15 groups and N = 5 for the scrambled peptide group; for i N = 14 mice for the vehicle group, N = 13 for the CAP-GDF15 group, and N = 5 for the scrambled peptide group. b–i injection occurred at time T = 0 (5:00 pm) and data were collected for the following 16 hrs.” left out
as §2
For acute energy expenditure studies, food intake, RER, movement, VO2, and VCO2 were collected with CLAMS Oxymax Metabolic Cages. Mice were placed in individual metabolic cages for 24 hours prior to experiment. Mice were injected with either vehicle, 50 mg/kg CAP-GDF15, 50 mg/kg uncapped CAP-GDF15, or 50 mg/kg scrambled CAP-GDF15 at 5 pm at T = 0. […] All experiments were done with 3–5 month old DIO mice (Jackson, stock 380050), fed high-fat diet ad libitum.
Supplementary Figure 5. Additional measurements from metabolic chambers of mice treated with CAP-GDF15. a CAP-GDF15 plasma concentration after administration of CAP-GDF15 (50 mg/kg, intraperitoneal) or vehicle control. b-c VO2 (b) and VCO2 (c) of 12-16-week diet-induced obese male mice following a single treatment of CAP-GDF15 (50 mg/kg, intraperitoneal) or vehicle control. d-e VO2 (d) and VCO2 (e) of 12-16-week diet-induced obese male mice following a single treatment of scrambled CAP-GDF15 (50 mg/kg, intraperitoneal, scrambled sequence: p[…]-NH2) or vehicle control. f Acute food intake of 12-16-week diet-induced obese male mice following a single treatment of CAP-GDF15 (50 mg/kg, intraperitoneal), uncapped CAP-GDF15 (50 mg/kg, intraperitoneal), or vehicle control. For (a), N=3/group; (b-c), N=12/group; for (d-e), N=8/group; for (f), N=5/group.
For (a-f), injection occurred at time T=0 (5:00pm). Data are shown as means ± SEM. For (b-i), p values were calculated by two-way ANOVA. Source data are provided as a Source Data

For data set [3] the following is noted: human, in vivo; cited from earlier work.
[4] abbreviates: 50 mg/kg/day IP, diet-induced obese mice, N = 5, P > 0.05 versus vehicle.

As to `CSCC[C@H](NC(=O)[C@H](CC(C)C)NC(=O)CNC(=O)[C@H](Cc1ccccc1)NC(=O)[C@H](Cc1ccccc1)NC(=O)[C@@H]1CCC(=O)N1)C(N)=O` [CAP-TAC1] ([pGlu]FFGLM-NH2), on human TACR3, the Emax is around 20%. Also, in the data set “in vitro” (mouse, plasma), the half-life at 10 µM was found to be 17.1 min and the “plasma stability t1/2, earlier manuscript version quoted in the rebuttal” value stood at 14.4 min.

As for `CC(C)C[C@H](NC(=O)CNC(=O)[C@@H]1CCC(=O)N1)C(=O)N[C@@H](CCC(=O)O)C(=O)N[C@@H](C)C(=O)N[C@@H](CC(C)C)C(=O)N[C@@H](CCCNC(=N)N)C(=O)N[C@@H](C)C(=O)N[C@@H](CCCNC(=N)N)C(=O)N[C@@H](CC(C)C)C(=O)N[C@@H](CCCNC(=N)N)C(=O)N[C@H](C(N)=O)C(C)C` [Scrambled Peptide] ([pGlu]GLEALRARLRV-NH2), the “Food Intake” value in data set [1] (24 h, individual animal 1) was 2.8 g; in data set [1] (24 h, individual animal 2), 2.6 g; in data set [1] (24 h, individual animal 3), 3.6 g; in data set [1] (24 h, individual animal 4), 3.6 g; in data set [1] (24 h, individual animal 5), 2.3 g; in data set [1] (48 h, individual animal 1), 6.2 g. Besides, the “Food Intake” value in data set [1] (48 h, individual animal 2) is given as 4.9 g; in data set [1] (48 h, individual animal 3) it was 7.3 g; in data set [1] (48 h, individual animal 4), 7.3 g; in data set [1] (48 h, individual animal 5) it was 4.2 g; in data set [1] (72 h, individual animal 1), 9.2 g; in data set [1] (72 h, individual animal 2) it was 7.4 g. Further, the “Food Intake” value stood at 10.7 g in data set [1] (72 h, individual animal 3); 10.9 g in data set [1] (72 h, individual animal 4); 6.9 g in data set [1] (72 h, individual animal 5).

As for `CSCC[C@H](NC(=O)[C@H](CC(C)C)NC(=O)CNC(=O)[C@H](Cc1ccccc1)NC(=O)[C@H](Cc1ccccc1)NC(=O)[C@H](CCC(N)=O)NC(=O)[C@H](CCC(N)=O)NC(=O)[C@@H]1CCCN1C(=O)[C@H](CCCCN)NC(=O)[C@@H]1CCCN1C(=O)[C@@H](N)CCCN=C(N)N)C(N)=O` [Substance P], the “plasma stability t1/2” value in “in vitro” stood at 8.5 min. In “in vitro” (mouse, plasma), this compound registered a half-life at 10 µM of 4.5 min.

For the compound `CC(C)C[C@H](NC(=O)CNC(=O)[C@@H]1CCC(=O)N1)C(=O)N[C@@H](CCC(=O)O)C(=O)N[C@@H](C)C(=O)N[C@@H](CC(C)C)C(=O)N[C@@H](CCCNC(=N)N)C(=O)N[C@@H](C)C(=O)N[C@@H](CCCNC(=N)N)C(=O)N[C@@H](CC(C)C)C(=O)N[C@@H](CCCNC(=N)N)C(=O)N[C@H](C(N)=O)C(C)C` [scrambled CAP-GDF15] ([pGlu]GLEALRARLRV-NH2), in data set [2], the “effect on acute food intake, in words” value is recorded as “completely ineffective” and the “effect on respiratory exchange ratio (RER)” value is given as “completely ineffective”. In data set [1] (setting [4]), the “3-day body weight compared with control mice, in words” value is “indistinguishable” and the “3-day food intake compared with control mice, in words” value is “indistinguishable”.

With QFFGLM-NH2 [Substance P (6-11)], in “in vitro” (mouse, plasma), the half-life at 10 µM was determined as 8.5 min.

Turning to QLELRLRVAAGR [uncapped CAP-GDF15], the “effect on acute food intake, in words” value in data set [2] is reported as “significantly less efficacious”.

Take liraglutide: in data set [3], the bioavailability is 55%.
